What follows are molecules tested against N-His-Tb-BIR3 (241-356, XIAP) (Homo sapiens (Human), UniProt P98170) (assay: biochemical). Details: not given.
Format: binding

SMILES | IC50 [nM]
CN[C@@H](C)C(=O)N[C@H](C(=O)N1Cc2cc(NC(=O)c3ccc(C(=O)N[C@H]4C[C@@H](C(=O)N[C@@H]5CCCc6ccccc65)N(C(=O)[C@@H](NC(=O)[C@@H](NC)C(C)C)C(C)(C)C)C4)cc3)ccc2C[C@H]1C(=O)N[C@@H]1CCCc2ccccc21)C(C)(C)C [Example 36, N^1-((S)-2-((S)-3,3-dimethyl-2-((S)-2-(methylamino)propanamido)butanoyl)-3-(((R)-1,2,3,4-tetrahydronaphthalen-1-yl)carbamoyl)-1,2,3,4-tetrahydroisoquinolin-7-yl)-N^4-((3S,5S)-1-((S)-3,3-dimethyl-2-((S)-3-methyl-2-(methylamino)butanamido)butanoyl)-5-(((R)-1,2,3,4-tetrahydronaphthalen-1-yl)carbamoyl)pyrrolidin-3-yl)terephthalamide] | 190

Same assay, conditions: fluoresceinated modified SMAC peptide, fluorescence polarization; read-out: XIAP BIR3 FPA IC50

SMILES | IC50 [nM]
CN[C@@H](C)C(=O)N[C@H](C(=O)N1Cc2cc(C(=O)NC(C)(C)C(=O)N[C@H]3C[C@@H](C(=O)N[C@@H]4CCCc5ccccc54)N(C(=O)[C@@H](NC(=O)[C@H](C)NC)C(C)(C)C)C3)ccc2C[C@H]1C(=O)N[C@@H]1CCCc2ccccc21)C(C)(C)C [Example 29, (S)-2-((S)-3,3-Dimethyl-2-((S)-2-(methylamino)propanamido)butanoyl)-N7-(1-(((3S,5S)-1-((S)-3,3-dimethyl-2-((S)-2-(methylamino)propanamido)butanoyl)-5-(((R)-1,2,3,4-tetrahydronaphthalen-1-yl)carbamoyl)pyrrolidin-3-yl)amino)-2-methyl-1-oxopropan-2-yl)-N3-((R)-1,2,3,4-tetrahydronaphthalen-1-yl)-1,2,3,4-tetrahydroisoquinoline-3,7-dicarboxamide] | 61
CN[C@@H](C)C(=O)N[C@H](C(=O)N1CC[C@@H](OCc2ccc(C(=O)N[C@H]3C[C@@H](C(=O)N[C@@H]4CCCc5ccccc54)N(C(=O)[C@@H](NC(=O)[C@H](C)NC)C(C)(C)C)C3)cc2)C[C@H]1C(=O)N[C@@H]1CCCc2ccccc21)C(C)(C)C [Example 30, (2S,4R)-1-((S)-3,3-Dimethyl-2-((S)-2-(methylamino)propanamido)butanoyl)-4-((4-(((3S,5S)-1-((S)-3,3-dimethyl-2-((S)-2-(methylamino)propanamido)butanoyl)-5-(((R)-1,2,3,4-tetrahydronaphthalen-1-yl)carbamoyl)pyrrolidin-3-yl)carbamoyl)benzyl)oxy)-N—((R)-1,2,3,4-tetrahydronaphthalen-1-yl)piperidine-2-carboxamide] | 38
CN[C@@H](C)C(=O)N[C@H](C(=O)N1Cc2cc(NCc3ccc(C(=O)N[C@H]4C[C@@H](C(=O)N[C@@H]5CCCc6ccccc65)N(C(=O)[C@@H](NC(=O)[C@H](C)NC)C(C)(C)C)C4)cc3)ccc2C[C@H]1C(=O)N[C@@H]1CCCc2ccccc21)C(C)(C)C [Example 31, (S)-2-((S)-3,3-Dimethyl-2-((S)-2-(methylamino)propanamido)butanoyl)-7-((4-(((3S,5S)-1-((S)-3,3-dimethyl-2-((S)-2-(methylamino)propanamido)butanoyl)-5-(((R)-1,2,3,4-tetrahydronaphthalen-1-yl)carbamoyl)pyrrolidin-3-yl)carbamoyl)benzyl)amino)-N—((R)-1,2,3,4-tetrahydronaphthalen-1-yl)-1,2,3,4-tetrahydroisoquinoline-3-carboxamide] | 71
CN[C@@H](C)C(=O)N[C@H](C(=O)N1Cc2cc(N(Cc3ccc(C(=O)N[C@H]4C[C@@H](C(=O)N[C@@H]5CCCc6ccccc65)N(C(=O)[C@@H](NC(=O)[C@H](C)NC)C(C)(C)C)C4)cc3)C(C)=O)ccc2C[C@H]1C(=O)N[C@@H]1CCCc2ccccc21)C(C)(C)C [Example 32, (S)-2-((S)-3,3-Dimethyl-2-((S)-2-(methylamino)propanamido)butanoyl)-7-(N-(4-(((3S,5S)-1-((S)-3,3-dimethyl-2-((S)-2-(methylamino)propanamido)butanoyl)-5-(((R)-1,2,3,4-tetrahydronaphthalen-1-yl)carbamoyl)pyrrolidin-3-yl)carbamoyl)benzyl)acetamido)-N—((R)-1,2,3,4-tetrahydronaphthalen-1-yl)-1,2,3,4-tetrahydroisoquinoline-3-carboxamide] | 35
CN[C@@H](C)C(=O)N[C@H](C(=O)N1Cc2cc(NCc3ccc(C(=O)N[C@H]4C[C@@H](C(=O)N[C@@H]5CCCc6ccccc65)N(C(=O)[C@@H](NC(=O)[C@H](C)NC)C(C)(C)C)C4)cc3Cl)ccc2C[C@H]1C(=O)N[C@@H]1CCCc2ccccc21)C(C)(C)C [Example 33, (S)-7-((2-Chloro-4-(((3S,5S)-1-((S)-3,3-dimethyl-2-((S)-2-(methylamino)propanamido)butanoyl)-5-(((R)-1,2,3,4-tetrahydronaphthalen-1-yl)carbamoyl)pyrrolidin-3-yl)carbamoyl)benzyl)amino)-2-((S)-3,3-dimethyl-2-((S)-2-(methylamino)propanamido)butanoyl)-N—((R)-1,2,3,4-tetrahydronaphthalen-1-yl)-1,2,3,4-tetrahydroisoquinoline-3-carboxamide] | 66
CCN[C@@H](C)C(=O)N[C@H](C(=O)N1Cc2cc(NC(=O)c3ccc(C(=O)N[C@H]4C[C@@H](C(=O)N[C@@H]5CCCc6ccccc65)N(C(=O)[C@@H](NC(=O)[C@H](C)NC)C(C)(C)C)C4)cc3)ccc2C[C@H]1C(=O)N[C@@H]1CCCc2ccccc21)C(C)(C)C [Example 34, N^1-((3S,5S)-1-((S)-3,3-dimethyl-2-((S)-2-(methylamino)propanamido)butanoyl)-5-(((R)-1,2,3,4-tetrahydronaphthalen-1-yl)carbamoyl)pyrrolidin-3-yl)-N^4-((S)-2-((S)-2-((S)-2-(ethylamino)propanamido)-3,3-dimethylbutanoyl)-3-(((R)-1,2,3,4-tetrahydronaphthalen-1-yl)carbamoyl)-1,2,3,4-tetrahydroisoquinolin-7-yl)terephthalamide] | 150
CN[C@@H](C)C(=O)N[C@H](C(=O)N1C[C@@H](NC(=O)c2ccc(C(=O)Nc3ccc4c(c3)CN(C(=O)[C@@H](NC(=O)[C@@H](NC)C(C)C)C(C)(C)C)[C@H](C(=O)N[C@@H]3CCCc5ccccc53)C4)cc2)C[C@H]1C(=O)N[C@@H]1CCCc2ccccc21)C(C)(C)C [Example 35] | 200
CN[C@@H](C)C(=O)N[C@H](C(=O)[C@@H]1C[C@H](NC(=O)[C@@H](CCC(F)(F)F)[C@@H](CCC(F)(F)F)C(=O)Nc2ccc3c(c2)CN(C(=O)[C@@H](NC(=O)[C@H](C)NC)C(C)(C)C)[C@H](C(=O)N[C@@H]2CCCc4ccccc42)C3)CN1C(=O)N[C@@H]1CCCc2ccccc21)C(C)(C)C [Example 37, (2S,3R)-N^1-((3S,5S)-5-((S)-3,3-dimethyl-2-((S)-2-(methylamino)propanamido)butanoyl)-1-(((R)-1,2,3,4-tetrahydronaphthalen-1-yl)carbamoyl)pyrrolidin-3-yl)-N^4-((S)-2-((S)-3,3-dimethyl-2-((S)-2-(methylamino)propanamido)butanoyl)-3-(((R)-1,2,3,4-tetrahydronaphthalen-1-yl)carbamoyl)-1,2,3,4-tetrahydroisoquinolin-7-yl)-2,3-bis(3,3,3-trifluoropropyl) succinamide] | 110
CCN[C@@H](C)C(=O)N[C@H](C(=O)N[C@H](C(=O)N1Cc2cc(OCc3ccc(C(=O)N[C@H]4C[C@@H](C(=O)N[C@@H]5CCCc6ccccc65)N(C(=O)[C@@H](NC(=O)[C@H](C)NC)C(C)(C)C)C4)cc3)ccc2C[C@H]1C(=O)N[C@@H]1CCCc2ccccc21)C(C)(C)C)C(C)(C)C [Example 40, (S)-7-((4-(((3S,5S)-1-((S)-3,3-Dimethyl-2-((S)-2-(methylamino)propanamido)butanoyl)-5-(((R)-1,2,3,4-tetrahydronaphthalen-1-yl)carbamoyl)pyrrolidin-3-yl)carbamoyl)benzyl)oxy)-2-((S)-2-((S)-2-((S)-2-(ethylamino)propanamido)-3,3-dimethylbutanamido)-3,3-dimethylbutanoyl)-N-((R)-1,2,3,4-tetrahydronaphthalen-1-yl)-1,2,3,4-tetrahydroisoquinoline-3-carboxamide] | 660
CN[C@@H](C)C(=O)N[C@H](C(=O)N1Cc2ccc(OCc3ccc(C(=O)N[C@H]4C[C@@H](C(=O)N[C@@H]5CCCc6ccccc65)N(C(=O)[C@@H](NC(=O)[C@H](C)NC)C(C)(C)C)C4)cc3)cc2C[C@H]1C(=O)N[C@@H]1CCCc2ccccc21)C(C)(C)C [Example 41, (S)-2-((S)-3,3-Dimethyl-2-((S)-2-(methylamino)propanamido)butanoyl)-6-((4-(((3S,5S)-1-((S)-3,3-dimethyl-2-((S)-2-(methylamino)propanamido)butanoyl)-5-(((R)-1,2,3,4-tetrahydronaphthalen-1-yl)carbamoyl)pyrrolidin-3-yl)carbamoyl)benzyl)oxy)-N-((R)-1,2,3,4-tetrahydronaphthalen-1-yl)-1,2,3,4-tetrahydroisoquinoline-3-carboxamide] | 65
CN[C@@H](C)C(=O)N[C@H](C(=O)N1Cc2ccc(OCc3ccc(C(=O)N[C@H]4C[C@@H](C(=O)NC5CCCc6ccccc65)N(C(=O)[C@@H](NC(=O)[C@H](C)NC)C(C)(C)C)C4)cc3)cc2C[C@@H]1C(=O)NC1CCCc2ccccc21)C(C)(C)C (stereo partly drawn) [Example 42, (R)-2-((S)-3,3-Dimethyl-2-((S)-2-(methylamino)propanamido)butanoyl)-6-((4-(((3S,5S)-1-((S)-3,3-dimethyl-2-((5)-2-(methylamino)propanamido)butanoyl)-5-(((R)-1,2,3,4-tetrahydronaphthalen-1-yl)carbamoyl)pyrrolidin-3-yl)carbamoyl)benzyl)oxy)-N-((R)-1,2,3,4-tetrahydronaphthalen-1-yl)-1,2,3,4-tetrahydroisoquinoline-3-carboxamide] | 240
CC[C@H](NC)C(=O)N[C@H](C(=O)N1Cc2cc(OCc3ccc(C(=O)N[C@H]4C[C@@H](C(=O)N[C@@H]5CCCc6ccccc65)N(C(=O)[C@@H](NC(=O)[C@H](C)NC)C(C)(C)C)C4)cc3)ccc2C[C@H]1C(=O)N[C@@H]1CCCc2ccccc21)C(C)(C)C [Example 43] | 130

— patent US9783573B2, “IAP antagonists” (BRISTOL-MYERS SQUIBB COMPANY, priority 2012, dated 2017)
